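Following 48 hours of exposure in 96-well plates, responses at five concentrations were used to interpolate endpoints linearly. At the GI50, growth is halved. TGI: total growth inhibition.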
Key:
Assay in all cases: growth of human tumour cells (NCI), 48 h
[1] = test system: CCRF-CEM leukemia
[2] = test system: NCI-H23 lung
[3] = test system: SF-268 CNS
[4] = test system: SN12C renal
[5] = test system: COLO 205 colon
[6] = test system: KM12 colon
[7] = test system: SK-MEL-2 melanoma
[8] = test system: OVCAR-8 ovarian
[9] = test system: UO-31 renal
[10] = test system: BT-549 breast
[11] = test system: NCI/ADR-RES ovarian
[12] = test system: SW-620 colon
[13] = test system: SK-MEL-28 melanoma
[14] = test system: NCI-H460 lung
[15] = test system: HOP-92 NSCLC
[16] = test system: RXF 393 renal
[17] = test system: A549 NSCLC
[18] = test system: HL-60(TB) leukemia
[19] = test system: PC-3 prostate
[20] = test system: HS 578T breast
[21] = test system: SNB-75 CNS
[22] = test system: SF-295 CNS
[23] = test system: HCT-15 colon
[24] = test system: MDA-MB-231 breast
[25] = test system: MCF7 breast
[26] = test system: SK-OV-3 ovarian
[27] = test system: DU-145 prostate
[28] = test system: HT29 colon
[29] = test system: UACC-62 melanoma
[30] = test system: MALME-3M melanoma
[31] = test system: ACHN renal
[32] = test system: NCI-H226 lung
[33] = test system: K-562 leukemia
[34] = test system: MDA-MB-435
[35] = test system: SNB-19 CNS
[36] = test system: OVCAR-3 ovarian
[37] = test system: HCC-2998 colon
[38] = test system: T-47D breast
[39] = test system: SK-MEL-5 melanoma
[40] = test system: HOP-62 NSCLC
[41] = test system: SF-539 CNS
[42] = test system: OVCAR-4 ovarian
[43] = test system: LOX IMVI melanoma
[44] = test system: EKVX NSCLC
[45] = test system: TK-10 renal
[46] = test system: OVCAR-5 ovarian
[47] = test system: CAKI-1 renal
[48] = test system: HCT-116 colon
[49] = test system: RPMI-8226 leukemia
[50] = test system: M14 melanoma
[51] = test system: IGROV1 ovarian
[52] = test system: MOLT-4 leukemia
[53] = test system: 786-0 renal
[54] = test system: U251 CNS
[55] = test system: NCI-H522 lung
[56] = test system: A498 renal

COc1cc(-c2csc(NC(=O)Nc3ccc(Cl)c(C(F)(F)F)c3)n2)cc(OC)c1OC
GI50 [1]: 2.24 µM | TGI [1]: 12.8 µM | GI50 [2]: 1.47 µM | TGI [2]: 6.06 µM | GI50 [3]: 2.25 µM | TGI [3]: 10.4 µM | GI50 [4]: 1.76 µM | TGI [4]: 6.6 µM | GI50 [5]: 1.65 µM | TGI [5]: 3.46 µM | GI50 [6]: 0.764 µM | TGI [6]: 4.93 µM | GI50 [7]: 1.8 µM | TGI [7]: 4.57 µM | GI50 [8]: 1.38 µM | TGI [8]: 3.66 µM | GI50 [9]: 1.65 µM | TGI [9]: 5.64 µM | GI50 [10]: 1.94 µM | TGI [10]: 5.55 µM | GI50 [11]: 1.5 µM | TGI [11]: 5.53 µM | GI50 [12]: 2.06 µM | TGI [12]: 10.5 µM | GI50 [13]: 2.6 µM | TGI [13]: 11.3 µM | GI50 [14]: 1.37 µM | TGI [14]: 3.5 µM | GI50 [15]: 0.357 µM | TGI [15]: 2.22 µM | GI50 [16]: 1.6 µM | TGI [16]: 3.9 µM | GI50 [17]: 1.38 µM | TGI [17]: 4.75 µM | GI50 [18]: 1.76 µM | TGI [18]: 6.05 µM | GI50 [19]: 0.494 µM | TGI [19]: 3.36 µM | GI50 [20]: 1.67 µM | TGI [20]: 5.47 µM | GI50 [21]: 1.21 µM | TGI [21]: 3.17 µM | GI50 [22]: 1.13 µM | TGI [22]: 2.64 µM | GI50 [23]: 1.54 µM | TGI [23]: 10.7 µM | GI50 [24]: 1.47 µM | TGI [24]: 3.93 µM | GI50 [25]: 1.87 µM | TGI [25]: 10.1 µM | GI50 [26]: 1.98 µM | TGI [26]: 4.55 µM | GI50 [27]: 1.79 µM | TGI [27]: 6.67 µM | GI50 [28]: 1.8 µM | TGI [28]: 4.68 µM | GI50 [29]: 1.24 µM | TGI [29]: 3.75 µM | GI50 [30]: 1.97 µM | TGI [30]: 5.57 µM | GI50 [31]: 1.27 µM | TGI [31]: 3.57 µM | GI50 [32]: 1.74 µM | TGI [32]: 6.03 µM | GI50 [33]: 1.16 µM | TGI [33]: 11.3 µM | GI50 [34]: 1.81 µM | TGI [34]: 4.84 µM | GI50 [35]: 1.93 µM | TGI [35]: 6.97 µM | GI50 [36]: 1.16 µM | TGI [36]: 3.12 µM | GI50 [37]: 2.95 µM | TGI [37]: 10.6 µM | GI50 [38]: 0.885 µM | TGI [38]: 4.07 µM | GI50 [39]: 1.18 µM | TGI [39]: 2.44 µM | GI50 [40]: 1.7 µM | TGI [40]: 4.57 µM | GI50 [41]: 1.89 µM | TGI [41]: 5.47 µM | GI50 [42]: 1.15 µM | TGI [42]: 4.53 µM | GI50 [43]: 1.53 µM | TGI [43]: 3.48 µM | GI50 [44]: 1.19 µM | TGI [44]: 7.03 µM | GI50 [45]: 1.78 µM | TGI [45]: 5.03 µM | GI50 [46]: 2.35 µM | TGI [46]: 10.5 µM | GI50 [47]: 1.37 µM | TGI [47]: 3.62 µM | GI50 [48]: 1.42 µM | TGI [48]: 7.93 µM | GI50 [49]: 0.573 µM | TGI [49]: 4.1 µM | GI50 [50]: 2.26 µM | TGI [50]: 7.3 µM | GI50 [51]: 1.83 µM | TGI [51]: 9.3 µM | GI50 [52]: 1.13 µM | TGI [52]: 4.35 µM | GI50 [53]: 2.08 µM | TGI [53]: 6.47 µM | GI50 [54]: 1.41 µM | TGI [54]: 3.19 µM | GI50 [55]: 1.1 µM | TGI [55]: 3.57 µM | GI50 [56]: 0.26 µM | TGI [56]: 1.71 µM

— PubChem BioAssay (NCI)
